{
  "source": "patent USRE50805E1",
  "about": "“Single-layer oral dose of neuro-attenuating ketamine” (ACADIA Pharmaceuticals Inc., priority 2013, dated 2026)",
  "origin": "cited, not measured here",
  "key": {"[1]": {"settings": "after oral administration, background statement"}, "[2]": {"experiment": "not given", "remark": "listed apart in the source"}},
  "note": "Structures can show the parent of a compound that is named as a salt.",
  "data": [
    {"smiles": "CNC1(c2ccccc2Cl)CCCCC1=O", "note": "(racemic) [ketamine, (R,S)—2-(2-chlorophenyl)-2-(methylamino) cyclohexanone]", "values": [
      {"measurement": "elimination half-life", "setting": "[1]", "result": "2 to 3", "unit": "h"},
      {"measurement": "optimal efficacy plasma concentration", "setting": "exceeding it leads to more pronounced side effects", "result": "10 to 300", "unit": "ng/mL"},
      {"measurement": "blood concentration level above which side effects may become more pronounced", "setting": "in vivo", "result": "above 300 ng/L"}
    ]},
    {"smiles": "NC1(c2ccccc2Cl)CCCCC1=O", "note": "(racemic) [norketamine, (R,S)—2-(2-chlorophenyl)-2-(amino) cyclohexanone]", "values": [
      {"measurement": "elimination half-life", "setting": "[1]", "result": 4, "unit": "h"}
    ]},
    {"smiles": "CNC1(c2ccccc2Cl)CCCCC1=O", "note": "(centres unmarked) [ketamine hydrochloride]", "values": [
      {"measurement": "solubility in water", "setting": "[2]", "result": "about 200 mg/ml"}
    ]}
  ]
}
